# Target: PIK3CG (human) (UniProt P48736)
# Assay: Assessment of PIK3CG Kinase Activity
# Chain of PIK3CG (human) (P48736 whole entry, looked up): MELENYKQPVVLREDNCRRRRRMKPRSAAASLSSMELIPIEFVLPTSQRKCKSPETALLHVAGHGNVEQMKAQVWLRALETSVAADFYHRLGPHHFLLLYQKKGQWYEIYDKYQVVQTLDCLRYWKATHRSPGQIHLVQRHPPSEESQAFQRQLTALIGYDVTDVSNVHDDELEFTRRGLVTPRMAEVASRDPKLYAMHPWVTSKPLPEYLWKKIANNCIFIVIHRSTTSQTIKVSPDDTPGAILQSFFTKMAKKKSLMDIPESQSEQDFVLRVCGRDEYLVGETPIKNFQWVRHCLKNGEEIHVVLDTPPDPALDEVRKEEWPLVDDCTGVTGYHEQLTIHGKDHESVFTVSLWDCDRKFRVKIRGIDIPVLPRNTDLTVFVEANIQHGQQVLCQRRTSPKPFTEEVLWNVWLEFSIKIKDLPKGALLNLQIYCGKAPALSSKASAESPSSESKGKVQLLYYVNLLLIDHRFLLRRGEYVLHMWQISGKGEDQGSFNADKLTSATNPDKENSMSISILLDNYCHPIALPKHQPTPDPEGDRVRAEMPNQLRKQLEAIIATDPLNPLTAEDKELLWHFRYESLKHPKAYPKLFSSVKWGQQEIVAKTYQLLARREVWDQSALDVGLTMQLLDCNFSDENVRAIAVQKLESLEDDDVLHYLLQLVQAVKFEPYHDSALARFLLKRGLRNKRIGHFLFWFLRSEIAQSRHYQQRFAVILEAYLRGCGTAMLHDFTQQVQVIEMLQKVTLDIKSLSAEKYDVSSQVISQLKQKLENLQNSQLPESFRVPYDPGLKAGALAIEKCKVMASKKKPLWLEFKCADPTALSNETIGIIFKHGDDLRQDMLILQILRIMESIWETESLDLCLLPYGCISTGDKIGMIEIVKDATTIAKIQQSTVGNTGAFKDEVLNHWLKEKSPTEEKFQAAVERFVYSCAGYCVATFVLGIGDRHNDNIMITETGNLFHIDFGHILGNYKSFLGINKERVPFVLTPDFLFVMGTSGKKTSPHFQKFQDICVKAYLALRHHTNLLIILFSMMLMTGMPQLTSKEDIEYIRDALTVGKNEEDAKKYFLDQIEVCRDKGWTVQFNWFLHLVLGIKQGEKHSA
row,SMILES,IC50
1,CC(=O)Nc1nc2c(s1)-c1c(cnn1-c1ccccc1)C2,< 800 nM
2,CC(=O)Nc1nc2c(s1)-c1c(c(C(F)(F)F)nn1-c1ccccc1)CC2,< 800 nM
3,CC(=O)Nc1nc2c(s1)-c1c(c(C(=O)N[C@@H]3CCOC3=O)nn1-c1ccccc1)CC2,< 800 nM
4,CC(=O)Nc1nc2c(s1)-c1c(cnn1-c1ccc(C(=O)NCC(F)(F)F)cc1)CC2,< 800 nM
5,CN(C)CCN(C)C(=O)Nc1nc2c(s1)-c1c(cnn1-c1ccccc1Cl)C2,< 800 nM
6,CC(=O)Nc1nc2c(s1)-c1c(cnn1-c1ccc(C(=O)N(C)CCO)cc1)CC2,< 800 nM
7,CC(=O)Nc1nc2c(s1)-c1c(c(C(=O)N3CCSC3)nn1-c1ccccc1)CC2,< 800 nM
8,C=CCNC(=O)c1ccc(-n2ncc3c2-c2sc(NC(C)=O)nc2CC3)cc1,< 800 nM
9,CC(=O)Nc1nc2c(s1)-c1c(cnn1-c1ccc(C(=O)Nc3ccc(C4CCN(C)CC4)cc3)cc1)CC2,< 800 nM
10,CC(=O)Nc1nc2c(s1)-c1c(cnn1-c1ccc(C(=O)N3C[C@@H](C)O[C@@H](C)C3)cc1Cl)CC2,< 800 nM
11,CC(=O)Nc1nc2c(s1)-c1nc(-c3ccccc3Cl)ncc1C2,< 800 nM
12,CC(=O)Nc1nc2c(s1)-c1c(cnn1-c1ccc(C(=O)NCCCN3CCOCC3)cc1)CC2,< 800 nM
13,CC(=O)Nc1nc2c(s1)-c1c(cnn1-c1ccc(C(=O)N[C@H]3CC[C@@H](N4C[C@@H](C)O[C@@H](C)C4)CC3)cc1)CC2,< 800 nM
14,CC(=O)Nc1nc2c(s1)-c1nn(C(=O)C3CC3)cc1CC2,< 800 nM
15,CC(=O)Nc1nc2c(s1)-c1c(cnn1-c1ccc(C(=O)N[C@@H](CCC(=O)O)C(N)=O)cc1Cl)CC2,< 800 nM
16,CC(=O)Nc1nc2c(s1)-c1c(cnn1-c1ccc(C(=O)N(C)Cc3nccn3C)cc1)CC2,< 800 nM
17,CC(=O)Nc1nc2c(s1)-c1c(cnn1-c1ccc(C(=O)N[C@H]3CC[C@@H](N4CCCC4)CC3)cc1)CC2,< 800 nM
18,CC(=O)Nc1nc2c(s1)-c1c(cnn1-c1ccc(C(=O)N3CCC(N4CCOCC4)CC3)cc1Cl)CC2,< 800 nM
19,CC(=O)Nc1nc2c(s1)-c1c(cnn1-c1ccc(CC(=O)NCCN3CCNC3=O)cc1)CC2,< 800 nM
20,CC(=O)Nc1nc2c(s1)-c1c(cnn1C(=O)c1ccccc1Cl)CC2,< 800 nM

row,SMILES,IC50
1,CC(=O)Nc1nc2c(s1)-c1c(cnn1-c1ccc(C(=O)N3CCC[C@H]3C(N)=O)cc1)CC2,< 800 nM
2,CC(=O)Nc1nc2c(s1)-c1c(cnn1-c1ccc(C(=O)N3CCc4ccccc4C3)cc1)CC2,< 800 nM
3,CC(=O)Nc1nc2c(s1)-c1nc(C)ncc1CC2,< 800 nM
4,CC(=O)Nc1nc2c(s1)-c1nc(N3CCCCC3)ncc1CC2,< 800 nM
5,CC(=O)Nc1nc2c(s1)-c1c(cnn1-c1ccc(C(=O)Nc3nc4ccccc4[nH]3)cc1)CC2,< 800 nM
6,CCc1ccccc1-n1ncc2c1-c1sc(NC(C)=O)nc1CC2,< 800 nM
7,CC(=O)Nc1nc2c(s1)-c1c(cnn1-c1ccc(C(=O)N3CCOCC3)cc1)CC2,< 800 nM
8,CC(=O)Nc1nc2c(s1)-c1c(cnn1-c1ccc(CC(=O)NCc3nc4ccccc4n3C)cc1)CC2,< 800 nM
9,CN(C)CCCC(=O)Nc1nc2c(s1)-c1nc(-c3ccccc3)ncc1CC2,< 800 nM
10,CC(=O)Nc1nc2c(s1)-c1c(cnn1-c1ccc(CC(=O)N(C)CC(=O)N3CCOCC3)cc1)CC2,< 800 nM
11,CC(=O)Nc1nc2c(s1)-c1nc(C3CCCCC3)ncc1CC2,< 800 nM
12,CC(=O)Nc1nc2c(s1)-c1c(cnn1-c1ccc(C(=O)N[C@H]3CC[C@@H](N4CCN(c5ccccc5)CC4)CC3)cc1)CC2,< 800 nM
13,CC(=O)Nc1nc2c(s1)-c1c(cnn1-c1ccc(CC(=O)NCC3OCCO3)cc1)CC2,< 800 nM
14,CC(=O)Nc1nc2c(s1)-c1c(cnn1-c1ccc(OC(F)(F)F)cc1)CC2,< 800 nM
15,CC(=O)Nc1nc2c(s1)-c1c(c(-c3ccccn3)nn1-c1ccccc1Br)CC2,< 800 nM
16,C=C1CCN(C(=O)c2ccc(-n3ncc4c3-c3sc(NC(C)=O)nc3CC4)cc2)CC1,< 800 nM
17,CC(=O)Nc1nc2c(s1)-c1c(c(-c3cccnc3)nn1-c1ccccc1Cl)CC2,< 800 nM
18,CNC(=O)Nc1nc2c(s1)-c1nc(-c3ccccc3)ncc1CC2,< 800 nM
19,CC(=O)Nc1nc2c(s1)-c1c(cnn1-c1ccc(C(=O)N[C@@H](CCCNC(=N)N)C(N)=O)cc1Cl)CC2,< 800 nM

# Results, then the compound that gave them:
row,IC50,SMILES
1,< 800 nM,CC(=O)Nc1nc2c(s1)-c1nc(C(C)(C)C)ncc1CC2
2,< 800 nM,CC(=O)Nc1nc2c(s1)-c1c(c(C(C)C)nn1-c1ccc(C(=O)N(C)Cc3ccncc3)cc1Cl)CC2
3,< 800 nM,CC(=O)Nc1nc2c(s1)-c1c(cnn1-c1cccc3ccccc13)CC2
4,< 800 nM,CC(=O)Nc1nc2c(s1)-c1c(cnn1-c1ccc(C(=O)N3CCC4(CC3)CNC(=O)O4)cc1)CC2
5,< 800 nM,CC(=O)Nc1nc2c(s1)-c1c(cnn1-c1ccc(C(=O)NC(C)(C)CN3CCOCC3)cc1)CC2
6,< 800 nM,CC(=O)Nc1nc2c(s1)-c1c(cnn1-c1ccc(Br)cc1)CC2
7,< 800 nM,CC(=O)Nc1nc2c(s1)-c1c(cnn1-c1cccc(N3C4CCC3CC(O)C4)c1)CC2 (stereo not given)
8,< 800 nM,CC(=O)Nc1nc2c(s1)-c1c(cnn1-c1ccc(C(=O)N[C@@H](CCc3ccccc3)C(N)=O)cc1Cl)CC2
9,< 800 nM,CC(=O)Nc1nc2c(s1)-c1c(cnn1-c1cccc(C)c1)C2
10,< 800 nM,CC(=O)Nc1nc2c(s1)-c1c(cnn1-c1ccc(C(=O)N3CCC(N4CCCS4(=O)=O)CC3)cc1)CC2
11,< 800 nM,CC(=O)Nc1nc2c(s1)-c1c(c(-c3ccco3)nn1-c1ccc(C(=O)N[C@H]3CC[C@@H](N4CCCC4)CC3)cc1Cl)CC2
12,< 800 nM,CC(=O)Nc1nc2c(s1)-c1c(cnn1-c1ccc(C(=O)NCc3nccn3C)cc1)CC2
13,< 800 nM,CC(=O)Nc1nc2c(s1)-c1c(cnn1-c1ccc(C(=O)N3CCC(N4CCCCC4)CC3)cc1)CC2
14,< 800 nM,CC(=O)Nc1nc2c(s1)-c1c(cnn1-c1ccc(C(=O)NCc3nc4ccccc4[nH]3)cc1)CC2
15,< 800 nM,CC(=O)Nc1nc2c(s1)-c1c(c(C(=O)O)nn1-c1ccccc1)CC2
16,< 800 nM,COCc1nn(-c2ccccc2Cl)c2c1CCc1nc(NC(C)=O)sc1-2
17,< 800 nM,CC(=O)Nc1nc2c(s1)-c1nc(-c3ccccc3Cl)nc(O)c1CC2
18,< 800 nM,CC(=O)Nc1nc2c(s1)-c1c(cnn1-c1ccc(C(=O)N[C@H](C(N)=O)C(C)C)cc1Cl)CC2
19,< 800 nM,CC(=O)Nc1nc2c(s1)-c1nc(C(C)C)nc(O)c1CC2

row,IC50,SMILES
1,< 800 nM,NC(=O)Nc1nc2c(s1)-c1nc(-c3ccccc3)ncc1CC2
2,< 800 nM,CC(=O)Nc1nc2c(s1)-c1c(cnn1C1C=CCCC1)CC2 (stereo not given)
3,< 800 nM,COc1ccccc1-c1ncc2c(n1)-c1sc(NC(N)=O)nc1CC2
4,< 800 nM,COCc1nn(-c2ccccc2Br)c2c1CCc1nc(NC(C)=O)sc1-2
5,< 800 nM,CC(=O)Nc1nc2c(s1)-c1c(cnn1-c1ccc(C(=O)N(C)Cc3cnn(C)c3)cc1)CC2
6,< 800 nM,CN(C)C(=O)Nc1nc2c(s1)-c1c(cnn1-c1ccccc1Cl)C2
7,< 800 nM,CC(=O)Nc1nc2c(s1)-c1nn(-c3ccccc3Cl)c(-c3ccco3)c1CC2
8,< 800 nM,CC(=O)Nc1nc2c(s1)-c1nc(Cc3ccccc3)ncc1CC2
9,< 800 nM,COc1ccccc1-n1ncc2c1-c1sc(NC(C)=O)nc1C2
10,< 800 nM,CC(=O)Nc1nc2c(s1)-c1c(cnn1-c1ccc(C(=O)N3CCS(=O)(=O)CC3)cc1)CC2
11,< 800 nM,CC(=O)Nc1nc2c(s1)-c1c(c(C(C)C)nn1-c1ccc(C(=O)N(C)C3CCN(C)CC3)cc1Cl)CC2
12,< 800 nM,CC(=O)Nc1nc2c(s1)-c1c(c(C(=O)NCCO)nn1-c1ccccc1Cl)CC2
13,< 800 nM,NC(=O)Nc1nc2c(s1)-c1c(cnn1-c1ccccc1)C2
14,< 800 nM,CC(=O)Nc1nc2c(s1)-c1c(cnn1-c1ccc(C(=O)N[C@H]3CC[C@H](N4CCOCC4)CC3)cc1)CC2
15,< 800 nM,CCOC(=O)c1n[nH]c2c1CCc1nc(NC(C)=O)sc1-2
16,< 800 nM,CC(=O)Nc1nc2c(s1)-c1c(cnn1-c1ccc(C(=O)N[C@H]3CC[C@@H](N4CCC(C)(C)CC4)CC3)cc1)CC2
17,< 800 nM,CC(=O)Nc1nc2c(s1)-c1c(c(-c3ccco3)nn1-c1ccc(C(=O)NC3CCN(C)CC3)cc1Cl)CC2
18,< 800 nM,CC(=O)Nc1nc2c(s1)-c1c(cnn1-c1ccc(C(=O)N[C@H](CCCCN)C(N)=O)cc1Cl)CC2
19,< 800 nM,CC(=O)Nc1nc2c(s1)-c1c(cnn1-c1ccc(CC(=O)N3CCC(N4CCNC4=O)CC3)cc1)CC2

row,IC50,SMILES
1,< 800 nM,CC(=O)Nc1nc2c(s1)-c1nc(N3CCCC(C)(C)C3)ncc1CC2
2,< 800 nM,CC(=O)Nc1nc2c(s1)-c1c(c(-c3ccoc3)nn1-c1ccc(Cl)cc1)CC2
3,< 800 nM,COC(=O)Nc1nn(-c2ccccc2Cl)c2c1CCc1nc(NC(C)=O)sc1-2
4,< 800 nM,CC(=O)Nc1nc2c(s1)-c1c(cnn1-c1ccc(CC(=O)N3CCCC(=O)CC3)cc1)CC2
5,< 800 nM,CC(=O)Nc1nc2c(s1)-c1c(c([C@H]3CCCO3)nn1-c1ccc(C(=O)N(C)Cc3ccncc3)cc1Cl)CC2
6,< 800 nM,CC(=O)Nc1nc2c(s1)-c1c(cnn1-c1cc(S(N)(=O)=O)ccc1Cl)CC2
7,< 800 nM,CC(=O)Nc1nc2c(s1)-c1c(cnn1-c1ccc(C(=O)NCc3ccccc3C(N)=O)cc1)CC2
8,< 800 nM,CN(C)C(=O)Nc1nc2c(s1)-c1nc(N(C)C)ncc1CC2
9,< 800 nM,CC(=O)Nc1nc2c(s1)-c1c(cnn1-c1ccc(F)cc1)CC2
10,< 800 nM,CC(=O)Nc1nc2c(s1)-c1c(cnn1-c1ccc(CCNC(=O)c3ccccc3)cc1)CC2
11,< 800 nM,CC(=O)Nc1nc2c(s1)-c1c(cnn1-c1ccc(C(=O)N[C@H]3CC[C@@H](N4CCN(C)CC4)CC3)cc1)CC2
12,< 800 nM,CC(=O)Nc1nc2c(s1)-c1c(cnn1-c1ccc(C(=O)Nc3ccc(N4CCN(C)CC4)cc3)cc1)CC2
13,< 800 nM,CC(=O)Nc1nc2c(s1)-c1c(cnn1-c1ccc(C(=O)N3CCC(N4CCCCC4)CC3)cc1Cl)CC2
14,< 800 nM,CC(=O)Nc1nc2c(s1)-c1c(c([C@H]3CCCO3)nn1-c1ccccc1)CC2
15,< 800 nM,CC(=O)Nc1nc2c(s1)-c1c(cnn1-c1ccc(C(=O)N3CCC(N4CCNC4=O)CC3)cc1)CC2
16,< 800 nM,CC(=O)Nc1nc2c(s1)-c1c(cnn1C1CCN(C(=O)C(F)(F)F)CC1)CC2
17,< 800 nM,CC(=O)Nc1nc2c(s1)-c1c(cnn1-c1ccc(C(=O)NCCN3CCNC3=O)cc1)CC2
18,< 800 nM,CCC(=O)Nc1nc2c(s1)-c1nc(-c3ccccc3)ncc1CC2
